Assay results reported in patent US7211269B2, “Cosmetic or dermatological use of peptides for promoting adhesion between skin cells” (Societe d' Extraction de Principes Actifs S.A., priority 2001, dated 2007).
Where no end group is shown, it is not given here.

What was measured:
[1] = system: fibroblasts and keratinocytes in culture; assay: Peptide applied to fibroblasts and keratinocytes in culture, HPLC analysis of the culture medium; assay type: cell-based, human
Description: (§1) Human fibroblasts and keratinocytes were cultivated during 24 hours at 37° C. and 5% of CO2. For this period, the cells will release many degradation enzymes in the culture medium. Thereafter, the culture medium is removed to be put in the presence of the peptide.
A test is carried out by applying the peptide to the fibroblasts and to the keratinocytes in culture.
This assumption is then consolidated by the tests of effectiveness exposed in the […]

[2] = Stability of the peptide in culture medium removed from human fibroblasts and keratinocytes (released degradation enzymes), HPLC; assay type: in vitro ADME; conditions: medium from human fibroblasts and keratinocytes cultivated 24 hours at 37° C.; after 24 hours with peptide
Description: (§2) The Peptide (Gly-Pro-Gln)2-NH2 (SEQ ID NO: 2) was analyzed with a concentration of 10^-4 M by HPLC on a column of the C18 type, and with a linear gradient water/TFA 0.1%—acetonitril/TFA 0.1%.
as §1

[3] = Stability of the peptide by HPLC at various temperatures; assay type: physicochemical; conditions: 10^-4 M
Description: as §2

keratinocytes = assay: Adhesion of keratinocytes to pre-treated 96 wells micro-plates (MTT, OD reading); assay type: cell-based
Description: The study is carried out in 96 wells micro-plates on keratinocytes cultured in an incubator at 37° C. and 5% of CO2. The wells of these plates are pre-treated, for 12 hours, in different ways; four conditions have been realized: • Condition A: negative control, not containing peptide; • Condition B: incubated with various peptides, made up from 3 to 25 amino acids, with a concentration of 35 ppm; • Condition C: incubated with collagen of the type I with a concentration of 60 ppm; • Condition D: incubated with the peptide of sequence (Gly-Pro-Gln)2-NH2 (SEQ ID NO: 2) to a concentration of 5 ppm.
After 3 hours of contact with the keratinocytes, the wells are completely filled with medium, hermetically closed, turned over and agitated on a three-dimensional agitator during 20 minutes. Then the plates are emptied and the remaining medium is aspired. Then, 100 μl of MTT with 1 mg/ml are added by wells and are left for 3 hours at 37° C. and 5% CO2. The solution is finally withdrawn, then 100 μl of DMSO is added. A reading of the OD is made at 560 nm against 630 nm.
The OD is proportional to the quantity of viable cells, i.e. which adhered to the micro-plates.

For GPQGPQ-NH2 [(Gly-Pro-Gln)2-NH2], the “peptide concentration in the culture medium” value [1] was “decreases quickly”, the “degradation of the peptide in cell-conditioned culture medium” value [2] was “almost no degradation” and the “decomposition of peptide (HPLC)” value ([3]; after 24 hours at 25° C., 37° C. and 60° C.) was “no decomposition”. For the same substance, the “peptide degradation (HPLC)” value ([3]; after 8 days at 25° C.) was “no peptide degradation”, the “cell adhesion (in words)” value (keratinocytes; 5 ppm, after 3 hours of contact with the keratinocytes, compared with collagen of the type I at 60 ppm) was “good cell adhesion, similar to that of the collagen of the type I” and the “O.D. (proportional to quantity of viable adhered cells)” value (keratinocytes; Condition D: wells pre-treated 12 hours with 5 ppm, 3 hours of contact with keratinocytes, OD 560 nm against 630 nm) was 0.620.
